Here are results for six compounds from ChEMBL document CHEMBL1201862, “PubChem BioAssay data set” (2004).

Activity calls are given as the source filed them.

In assay [1] the target is Trypsin (Sus scrofa, UniProt P00761). Description: porcine trypsin inhibitors, dose response, selectivity assay for Rce1 protease inhibitor project, biochemical, quenched peptide fluorescence, cherry-pick (AID 488789).
In assay [2] the target is T1, CAAX prenyl protease 2 (Homo sapiens, UniProt Q9Y256).
T1 sequence (Q9Y256 whole entry): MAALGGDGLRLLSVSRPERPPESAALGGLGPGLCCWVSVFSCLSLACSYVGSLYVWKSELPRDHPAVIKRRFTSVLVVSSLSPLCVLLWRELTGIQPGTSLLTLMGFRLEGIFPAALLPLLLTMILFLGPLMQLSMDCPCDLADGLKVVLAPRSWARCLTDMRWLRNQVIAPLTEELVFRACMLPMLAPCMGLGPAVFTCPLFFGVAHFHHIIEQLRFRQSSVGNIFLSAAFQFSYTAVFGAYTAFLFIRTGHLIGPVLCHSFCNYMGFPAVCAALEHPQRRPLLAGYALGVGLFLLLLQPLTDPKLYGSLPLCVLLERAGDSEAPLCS
Description: human Rce1 protease inhibitors, dose response, biochemical, yeast membranes, quenched-peptide fluorescence, cherry-pick (AID 588849).

Assay [3] deals with INS1. Description: beta cell apoptosis inhibitors, cytokine rescue, dose response, luminescence, retest (AID 449756).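 Also: cell death triggered by IL-1 beta plus TNF-alpha plus IFN-gamma mixture; protective hits raise ATP signal compared with cytokine alone wells.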 The note with it: Rattus norvegicus. The class given is functional, cell-based.
Assay [4] deals with BJ. Description: cytotoxicity toward Ras-transformed BJeLR fibroblasts, dose response, cell-based, alamar blue fluorescence, cherrypicked samples (AID 2631).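 Also: confirmatory dose-response assay in RAS-dependent BJ fibroblasts engineered with TERT, LT and ST, with cytotoxicity read by fluorescence.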 The class given is functional. The note with it: Homo sapiens. On the technique in general: The colour change of resazurin is a common sign of viable cells or microbes.
Assay [5] addresses T2, Caspase-3 (Homo sapiens, UniProt P42574).
T2 sequence (P42574 whole entry): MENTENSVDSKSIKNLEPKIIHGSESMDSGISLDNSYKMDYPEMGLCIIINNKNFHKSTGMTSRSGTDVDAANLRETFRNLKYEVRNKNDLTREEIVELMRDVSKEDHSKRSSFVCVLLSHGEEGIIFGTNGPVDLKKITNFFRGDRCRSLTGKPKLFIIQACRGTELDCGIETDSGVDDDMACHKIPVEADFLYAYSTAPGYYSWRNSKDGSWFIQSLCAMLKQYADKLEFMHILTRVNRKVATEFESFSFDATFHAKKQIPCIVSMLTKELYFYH
Description: SAR Analysis of small molecule inhibitors of Sentrin-specific proteases (SENPs) using a Caspase-3 Selectivity assay. [Related pubchem assays (depositor defined):AID2540, AID2599, AID434973, AID489001]. The class given is functional.

For assay [6], the target named is T3, Sentrin-specific protease 8 (Homo sapiens, UniProt Q96LD8).
T3 sequence (Q96LD8 whole entry): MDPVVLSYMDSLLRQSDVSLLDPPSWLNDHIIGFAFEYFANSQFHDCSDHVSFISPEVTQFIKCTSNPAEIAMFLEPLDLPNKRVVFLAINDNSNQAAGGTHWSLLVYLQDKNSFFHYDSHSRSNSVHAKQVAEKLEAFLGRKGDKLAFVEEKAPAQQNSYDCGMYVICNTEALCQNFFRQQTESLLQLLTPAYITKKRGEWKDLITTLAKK
Description: SENP8 protease inhibitors, SAR follow-up, biochemical, luminescence (AID 504501). The class given is functional.

In assay [7] the target is T4, Sentrin-specific protease 6 (Homo sapiens, UniProt Q9GZR1).
T4 sequence (Q9GZR1 whole entry): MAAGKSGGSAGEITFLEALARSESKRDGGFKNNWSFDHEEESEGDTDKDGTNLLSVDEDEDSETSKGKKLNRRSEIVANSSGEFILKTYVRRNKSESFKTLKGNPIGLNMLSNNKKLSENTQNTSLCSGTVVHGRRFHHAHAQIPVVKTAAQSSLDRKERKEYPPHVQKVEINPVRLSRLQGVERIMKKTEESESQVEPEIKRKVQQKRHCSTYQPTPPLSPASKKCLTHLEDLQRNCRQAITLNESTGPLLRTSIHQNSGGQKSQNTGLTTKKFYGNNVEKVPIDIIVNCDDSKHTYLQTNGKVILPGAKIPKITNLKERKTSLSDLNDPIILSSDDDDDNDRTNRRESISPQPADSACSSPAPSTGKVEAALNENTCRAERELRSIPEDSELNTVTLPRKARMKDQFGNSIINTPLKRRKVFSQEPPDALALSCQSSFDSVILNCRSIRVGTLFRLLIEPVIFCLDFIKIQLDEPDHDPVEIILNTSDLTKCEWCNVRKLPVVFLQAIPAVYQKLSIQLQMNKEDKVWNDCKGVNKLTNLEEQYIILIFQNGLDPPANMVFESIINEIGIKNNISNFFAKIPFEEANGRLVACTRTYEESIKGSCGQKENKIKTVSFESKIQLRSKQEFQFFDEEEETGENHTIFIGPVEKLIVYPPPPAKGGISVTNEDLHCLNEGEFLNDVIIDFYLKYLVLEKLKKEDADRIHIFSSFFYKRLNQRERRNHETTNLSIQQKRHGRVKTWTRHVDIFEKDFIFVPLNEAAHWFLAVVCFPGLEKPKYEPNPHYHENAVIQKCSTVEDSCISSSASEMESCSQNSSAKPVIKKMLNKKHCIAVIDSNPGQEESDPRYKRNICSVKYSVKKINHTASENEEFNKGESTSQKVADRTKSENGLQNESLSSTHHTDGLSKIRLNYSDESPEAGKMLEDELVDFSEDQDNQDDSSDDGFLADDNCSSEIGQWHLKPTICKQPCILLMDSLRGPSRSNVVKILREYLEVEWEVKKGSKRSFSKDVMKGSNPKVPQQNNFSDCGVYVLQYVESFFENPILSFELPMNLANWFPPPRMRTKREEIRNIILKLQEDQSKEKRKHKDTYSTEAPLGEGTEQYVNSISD
Description: SAR Analysis of small molecule inhibitors of Sentrin-specific protease 6 (SENP6) using a Luminescent assay. [Related pubchem assays (depositor defined):AID2582, AID2599]. The assay is classed as functional.

For assay [8], the target named is T5, Sentrin-specific protease 7 (Homo sapiens, UniProt Q9BQF6).
T5 sequence (Q9BQF6 whole entry): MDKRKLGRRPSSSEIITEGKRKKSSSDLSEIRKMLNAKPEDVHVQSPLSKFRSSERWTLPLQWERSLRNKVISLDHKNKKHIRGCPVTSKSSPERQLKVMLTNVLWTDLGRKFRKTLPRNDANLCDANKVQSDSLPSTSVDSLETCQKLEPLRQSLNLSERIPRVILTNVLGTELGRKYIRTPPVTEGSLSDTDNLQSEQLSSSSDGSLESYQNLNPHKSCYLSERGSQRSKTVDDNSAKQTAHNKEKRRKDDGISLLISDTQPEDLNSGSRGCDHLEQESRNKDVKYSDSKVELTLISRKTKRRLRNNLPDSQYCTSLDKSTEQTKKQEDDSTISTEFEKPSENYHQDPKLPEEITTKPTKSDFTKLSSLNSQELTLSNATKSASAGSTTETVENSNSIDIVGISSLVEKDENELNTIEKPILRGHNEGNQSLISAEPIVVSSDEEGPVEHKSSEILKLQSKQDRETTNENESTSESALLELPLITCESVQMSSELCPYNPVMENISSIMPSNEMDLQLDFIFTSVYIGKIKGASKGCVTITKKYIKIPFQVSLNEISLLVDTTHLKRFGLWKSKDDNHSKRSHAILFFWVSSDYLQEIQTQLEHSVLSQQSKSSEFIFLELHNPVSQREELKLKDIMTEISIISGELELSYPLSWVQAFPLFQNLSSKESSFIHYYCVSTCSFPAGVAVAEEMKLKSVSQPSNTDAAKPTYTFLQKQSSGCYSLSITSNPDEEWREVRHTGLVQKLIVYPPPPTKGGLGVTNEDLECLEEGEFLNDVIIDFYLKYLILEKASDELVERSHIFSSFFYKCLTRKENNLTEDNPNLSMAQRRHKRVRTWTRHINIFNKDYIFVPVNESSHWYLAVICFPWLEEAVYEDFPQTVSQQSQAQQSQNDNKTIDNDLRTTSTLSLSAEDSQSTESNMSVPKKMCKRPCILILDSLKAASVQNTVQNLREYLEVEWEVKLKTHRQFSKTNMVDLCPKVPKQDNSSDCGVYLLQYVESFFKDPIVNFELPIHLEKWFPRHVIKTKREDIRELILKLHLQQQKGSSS
Description: SENP7 protease inhibitors, SAR follow-up, biochemical, luminescence (AID 504497). The assay is classed as functional.

For assay [9], the target named is Delta-type opioid receptor (Homo sapiens, UniProt P41143). Description: Counterscreen for agonists of heterodimerization of the mu 1 (OPRM1) and delta 1 (OPRD1) opioid receptors: Luminescence-based cell-based high throughput dose response assay to identify agonists of OPRD1 homodimerization. [Related pubchem assays (depositor defined):AID504326, AID504355, AID504692, AID504904, AID504905]. The assay is classed as functional. (In general: A counterscreen serves to expose hits that act by an unwanted route or on another target.)

The target of assay [10] is 5-hydroxytryptamine receptor 5A (Homo sapiens, UniProt P47898). Description: Counterscreen for agonists of OPRM1-OPRD1 heterodimerization: luminescence-based cell-based high throughput dose response assay to identify agonists of 5-hydroxytryptamine (serotonin) 5A receptor (HTR5A). [Related pubchem assays (depositor defined):AID504326, AID504355, AID504692, AID504904, AID504905]. The class given is functional.

Assay [11] concerns the target Mu-type opioid receptor (Homo sapiens, UniProt P35372). Description: Counterscreen for agonists of heterodimerization of the mu 1 (OPRM1) and delta 1 (OPRD1) opioid receptors: Luminescence-based cell-based high throughput dose response assay to identify agonists of OPRM1 homodimerization. The assay is classed as functional.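 Also: U2OS cells expressing OPRM1 and beta-arrestin as split beta-galactosidase partners.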
For assay [12], the target named is T6, Short transient receptor potential channel 4 (Mus musculus, UniProt Q9QUQ5).
T6 sequence (Q9QUQ5 whole entry): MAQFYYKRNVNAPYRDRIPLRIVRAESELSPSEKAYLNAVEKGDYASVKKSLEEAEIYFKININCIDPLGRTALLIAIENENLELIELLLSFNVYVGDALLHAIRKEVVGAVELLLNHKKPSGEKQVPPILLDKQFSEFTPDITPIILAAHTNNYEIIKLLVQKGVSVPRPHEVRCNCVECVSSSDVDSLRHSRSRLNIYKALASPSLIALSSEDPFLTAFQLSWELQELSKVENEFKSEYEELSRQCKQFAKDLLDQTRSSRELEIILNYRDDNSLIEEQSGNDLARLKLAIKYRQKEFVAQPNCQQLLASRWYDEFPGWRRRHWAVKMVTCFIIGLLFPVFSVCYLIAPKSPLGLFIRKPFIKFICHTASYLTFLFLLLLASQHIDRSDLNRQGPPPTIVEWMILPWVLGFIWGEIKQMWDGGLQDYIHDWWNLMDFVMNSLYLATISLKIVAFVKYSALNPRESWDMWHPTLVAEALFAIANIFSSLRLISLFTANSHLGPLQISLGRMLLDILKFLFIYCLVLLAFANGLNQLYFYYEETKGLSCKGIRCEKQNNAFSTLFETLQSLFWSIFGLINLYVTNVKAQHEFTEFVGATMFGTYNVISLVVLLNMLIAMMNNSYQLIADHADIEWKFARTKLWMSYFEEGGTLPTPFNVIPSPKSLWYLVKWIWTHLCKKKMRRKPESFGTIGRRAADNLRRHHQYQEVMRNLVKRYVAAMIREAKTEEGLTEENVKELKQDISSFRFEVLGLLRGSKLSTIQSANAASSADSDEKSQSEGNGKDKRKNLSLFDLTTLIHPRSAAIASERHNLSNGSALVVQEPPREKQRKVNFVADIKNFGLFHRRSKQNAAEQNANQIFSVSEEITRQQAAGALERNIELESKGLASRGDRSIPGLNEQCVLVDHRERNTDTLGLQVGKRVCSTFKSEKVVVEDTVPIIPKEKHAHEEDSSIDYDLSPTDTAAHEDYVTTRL
Description: mouse TRPC4 channel activators, dose response, cell-based, HEK293 TRPC4/mu-opioid, Fluo-4 calcium (AID 434937). The assay is classed as functional.

Trypsin, sequence (P00761 whole entry): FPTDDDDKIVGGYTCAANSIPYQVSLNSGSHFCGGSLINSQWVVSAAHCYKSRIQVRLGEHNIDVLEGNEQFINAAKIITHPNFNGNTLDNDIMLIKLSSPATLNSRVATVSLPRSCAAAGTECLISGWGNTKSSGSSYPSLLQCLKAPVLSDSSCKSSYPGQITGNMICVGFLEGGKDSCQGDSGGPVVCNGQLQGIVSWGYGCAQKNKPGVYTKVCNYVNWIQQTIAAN
Delta-type opioid receptor, sequence (P41143 whole entry): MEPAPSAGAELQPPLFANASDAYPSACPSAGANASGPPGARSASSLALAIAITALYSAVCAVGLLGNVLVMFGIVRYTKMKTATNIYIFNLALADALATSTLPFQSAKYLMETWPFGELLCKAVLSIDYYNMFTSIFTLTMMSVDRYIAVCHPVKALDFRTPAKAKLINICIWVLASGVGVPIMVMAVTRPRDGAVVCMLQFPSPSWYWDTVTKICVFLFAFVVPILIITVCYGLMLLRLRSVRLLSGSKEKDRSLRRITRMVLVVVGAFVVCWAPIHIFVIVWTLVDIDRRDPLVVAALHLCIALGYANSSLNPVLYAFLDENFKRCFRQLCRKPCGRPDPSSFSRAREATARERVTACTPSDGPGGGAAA
5-hydroxytryptamine receptor 5A, sequence (P47898 whole entry): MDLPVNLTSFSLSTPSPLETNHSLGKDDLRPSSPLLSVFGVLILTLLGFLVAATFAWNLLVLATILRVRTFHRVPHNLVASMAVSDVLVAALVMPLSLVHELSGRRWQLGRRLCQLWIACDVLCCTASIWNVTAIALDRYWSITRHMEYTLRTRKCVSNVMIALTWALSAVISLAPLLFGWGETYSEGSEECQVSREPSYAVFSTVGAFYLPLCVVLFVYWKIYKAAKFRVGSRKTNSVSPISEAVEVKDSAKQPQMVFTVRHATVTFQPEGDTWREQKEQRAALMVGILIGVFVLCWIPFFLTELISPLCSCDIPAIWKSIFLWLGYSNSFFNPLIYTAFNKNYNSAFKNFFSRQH
Mu-type opioid receptor, sequence (P35372 whole entry): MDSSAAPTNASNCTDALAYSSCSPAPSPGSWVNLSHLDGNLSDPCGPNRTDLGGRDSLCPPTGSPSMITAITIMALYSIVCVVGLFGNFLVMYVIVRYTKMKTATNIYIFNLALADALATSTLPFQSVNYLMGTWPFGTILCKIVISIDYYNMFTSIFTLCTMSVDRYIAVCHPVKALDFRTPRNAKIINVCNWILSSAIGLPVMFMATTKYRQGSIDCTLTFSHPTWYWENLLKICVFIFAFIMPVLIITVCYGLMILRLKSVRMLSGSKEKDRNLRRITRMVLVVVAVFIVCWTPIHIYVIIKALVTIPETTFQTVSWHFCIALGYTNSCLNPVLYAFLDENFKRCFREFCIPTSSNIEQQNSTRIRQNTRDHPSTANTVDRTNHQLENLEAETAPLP

Consider `Cc1cc(C)n2cc(CSC3=NCCS3)nc2n1`, for which the AC50 is 8500 nM (active) in assay [1] and 8530 nM (active) in assay [2].
Turning to `OC(c1cc(-c2ccc(Cl)cc2)nc2ccccc12)C1CCCCN1` (stereo not drawn), in [3], the AC50 was 12200 nM (active). For the same compound, in assay [4], the EC50 is > 133000 nM (inactive).
Turning to `CN(C)c1ccc(/C=N/NC(=O)C(O)c2ccc(Br)cc2)cc1` (stereo not drawn), the AC50 was 2800 nM (active) in [1] and 2170 nM (active) in assay [2].
For the compound `Clc1ccccc1-c1nnc(/C=C/c2cccs2)o1`, the IC50 in assay [5] is 1300 nM (active); in [6] it was 2060 nM (active); in [7] it was 2010 nM (active); in assay [8], 1960 nM (active).
For the compound `CN(C)C(CN=C(S)Nc1cccc(Cl)c1)c1ccccc1` (stereo not drawn), the EC50 in [9] was 11500 nM (inactive); in assay [10] it was > 92500 nM (inactive); in [11] it was 4640 nM (active); in assay [12], 596 nM (active).
Turning to `CSc1ccc(/C=C/c2noc(-c3ccccc3O)n2)cc1`, the IC50 is 1100 nM (active) in assay [5], 1300 nM (active) in assay [6], 1300 nM (active) in assay [7] and 1300 nM (active) in [8].

One may read the AC50 as the concentration at which the activity in the assay is half-maximal. For orientation: EC50 means the concentration that produces a half-maximal response. The IC50 is the concentration that inhibits the measured activity by half.
